Like-named read-outs stand apart in the source and are kept apart here. Starred links: 1 amine or outer side, 2 acyl side, 3 side chain; linkers in the order of their positions; H or OH if unused. Non-standard residues stand in square brackets, D forms with d. Residues, ends and D or L forms follow the SMILES beside them. Groups on a side chain read outwards from the residue. *: point of attachment. C20 diacid = O=C(O)CCCCCCCCCCCCCCCCCCC(=O)*; C18 diacid = O=C(O)CCCCCCCCCCCCCCCCC(=O)*; γGlu = O=C(O)[C@H](CCC(=O)[*:2])N[*:1]; αMeF = C[C@](N)(Cc1ccccc1)C(=O)O; PEG2 = NCCOCCOCCC(=O)O; AEEA = NCCOCCOCC(=O)O; Aib = CC(C)(N)C(=O)O
Assays:
[1] = molecular target: human GLP-1 receptor (hGLP-1R) (Homo sapiens, UniProt P43220); assay: cAMP production (HTRF) in CHO cells expressing hGLP-1R; assay type: cell-based; set-up: expressed in transfected cells; settings: for % Relative Potency Ratio: % GLP-1R activity relative to GLP-1 / % GlucR activity relative to glucagon
human GLP-1 receptor (hGLP-1R), sequence (P43220 24-463): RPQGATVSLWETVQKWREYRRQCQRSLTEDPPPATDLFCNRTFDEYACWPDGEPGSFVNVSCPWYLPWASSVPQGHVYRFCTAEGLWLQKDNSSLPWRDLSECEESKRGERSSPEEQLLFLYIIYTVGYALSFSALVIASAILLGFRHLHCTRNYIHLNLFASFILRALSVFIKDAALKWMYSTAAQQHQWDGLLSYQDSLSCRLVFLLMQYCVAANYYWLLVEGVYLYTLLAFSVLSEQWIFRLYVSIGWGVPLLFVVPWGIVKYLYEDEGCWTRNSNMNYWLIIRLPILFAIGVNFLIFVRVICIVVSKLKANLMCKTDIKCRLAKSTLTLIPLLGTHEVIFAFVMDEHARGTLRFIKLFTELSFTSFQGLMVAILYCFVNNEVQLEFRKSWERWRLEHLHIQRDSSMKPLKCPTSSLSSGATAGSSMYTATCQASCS
Method in brief: (§1)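 Cells were resuspended in assay buffer at batch-optimized density, typically 1×10^5 cells/mL for hGLP-1R and 2×10^5 cells/mL for hGCGR. After 30 min incubation at room temperature with compound, cAMP was measured by two-step HTRF. EC50 values came from 4-parameter logistic fits of % Delta F.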

[2] = molecular target: human glucagon receptor (hGCGR) (Homo sapiens, UniProt P47871); assay: cAMP production (HTRF) in CHO cells expressing hGCGR; assay type: cell-based; set-up: expressed in transfected cells; settings: cAMP, CHO cells, 0.1% BSA, geometric mean
human glucagon receptor (hGCGR), sequence (P47871 26-477): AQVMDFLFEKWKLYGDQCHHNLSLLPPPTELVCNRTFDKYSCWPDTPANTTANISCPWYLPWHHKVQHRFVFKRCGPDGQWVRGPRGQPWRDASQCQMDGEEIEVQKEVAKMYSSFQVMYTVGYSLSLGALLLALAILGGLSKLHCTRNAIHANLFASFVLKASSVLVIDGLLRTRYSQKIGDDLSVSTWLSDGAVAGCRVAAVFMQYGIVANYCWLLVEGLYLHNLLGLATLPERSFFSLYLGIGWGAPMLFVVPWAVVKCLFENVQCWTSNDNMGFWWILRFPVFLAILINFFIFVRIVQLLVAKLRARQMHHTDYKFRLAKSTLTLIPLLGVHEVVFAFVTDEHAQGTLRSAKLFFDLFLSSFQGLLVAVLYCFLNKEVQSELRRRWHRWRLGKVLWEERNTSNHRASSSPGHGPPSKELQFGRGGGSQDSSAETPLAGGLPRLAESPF
Method in brief: as §1

[3] = cAMP, CHO cells, 0.1% BSA, geometric mean, read-out: hGLP-1R EC50

SMILES	% Relative Potency Ratio [1]	EC50 ([1]; hGLP-1R EC50 (pM)) [pM]	EC50 ([2]; hGluc-R EC50 (pM)) [pM]	EC50 [1, 3] [pM]	EC50 ([2]; read-out: hGluc-R EC50) [pM]
CC[C@H](C)[C@H](NC(=O)[C@H](Cc1c[nH]c2ccccc12)NC(=O)[C@H](CCCCNC(=O)CCOCCOCCNC(=O)CCOCCOCCNC(=O)CC[C@H](NC(=O)CC[C@H](NC(=O)CCCCCCCCCCCCCCCCC(=O)O)C(=O)O)C(=O)O)NC(=O)[C@@H](NC(=O)[C@H](Cc1ccccc1)NC(=O)[C@H](CC(=O)O)NC(=O)[C@H](CCC(N)=O)NC(=O)[C@H](C)NC(=O)[C@H](C)NC(=O)[C@H](CCC(N)=O)NC(=O)[C@H](CO)NC(=O)[C@H](CC(=O)O)NC(=O)[C@H](CC(C)C)NC(=O)[C@](C)(Cc1ccccc1)NC(=O)[C@H](CCCCN)NC(=O)[C@H](CO)NC(=O)[C@@H](NC(=O)[C@H](CC(=O)O)NC(=O)[C@H](CO)NC(=O)[C@@H](NC(=O)[C@](C)(Cc1ccccc1)NC(=O)[C@H](CO)NC(=O)CNC(=O)[C@H](Cc1c[nH]cn1)NC(=O)C(C)(C)NC(=O)[C@@H](N)Cc1c[nH]cn1)[C@@H](C)O)C(C)C)C(C)C)C(=O)N[C@@H](C)C(=O)N[C@@H](CC(N)=O)C(=O)N[C@H](C(N)=O)[C@@H](C)O [Peptide 352] (H-H[Aib]HGS[αMeF]TSDVSK[αMeF]LDSQAAQDFVK([PEG2-PEG2-γGlu-γGlu-C18 diacid])WIANT-NH2; N-terminus assumed)	1.4	193	139	–	–
CC[C@H](C)[C@H](NC(=O)[C@H](Cc1c[nH]c2ccccc12)NC(=O)[C@H](CCCCNC(=O)CC[C@H](NC(=O)CC[C@H](NC(=O)CCOCCOCCNC(=O)CC[C@H](NC(=O)CC[C@H](NC(=O)CCCCCCCCCCCCCCCCC(=O)O)C(=O)O)C(=O)O)C(=O)O)C(=O)O)NC(=O)[C@@H](NC(=O)[C@H](Cc1ccccc1)NC(=O)[C@H](CC(=O)O)NC(=O)[C@H](CCC(N)=O)NC(=O)[C@H](C)NC(=O)[C@H](C)NC(=O)[C@H](CCC(N)=O)NC(=O)[C@H](CO)NC(=O)[C@H](CC(=O)O)NC(=O)[C@H](CC(C)C)NC(=O)[C@](C)(Cc1ccccc1)NC(=O)[C@H](CCCCN)NC(=O)[C@H](CO)NC(=O)[C@@H](NC(=O)[C@H](CC(=O)O)NC(=O)[C@H](CO)NC(=O)[C@@H](NC(=O)[C@](C)(Cc1ccccc1)NC(=O)[C@H](CO)NC(=O)CNC(=O)[C@H](Cc1c[nH]cn1)NC(=O)C(C)(C)NC(=O)[C@@H](N)Cc1c[nH]cn1)[C@@H](C)O)C(C)C)C(C)C)C(=O)N[C@@H](C)C(=O)N[C@@H](CC(N)=O)C(=O)N[C@H](C(N)=O)[C@@H](C)O [Peptide 353] (H-H[Aib]HGS[αMeF]TSDVSK[αMeF]LDSQAAQDFVK([γGlu-γGlu-PEG2-γGlu-γGlu-C18 diacid])WIANT-NH2; N-terminus assumed)	1.0	311	163	–	–
CC[C@H](C)[C@H](NC(=O)[C@H](Cc1c[nH]c2ccccc12)NC(=O)[C@H](CCCCNC(=O)CC[C@H](NC(=O)CCCCCCCCCCCCCCCCCCC(=O)O)C(=O)O)NC(=O)[C@@H](NC(=O)[C@H](Cc1ccccc1)NC(=O)[C@H](CC(=O)O)NC(=O)[C@H](CCC(N)=O)NC(=O)[C@H](C)NC(=O)[C@H](C)NC(=O)[C@H](CCC(N)=O)NC(=O)[C@H](CO)NC(=O)[C@H](CC(=O)O)NC(=O)[C@H](CC(C)C)NC(=O)[C@](C)(Cc1ccccc1)NC(=O)[C@H](CCCCN)NC(=O)[C@H](CO)NC(=O)[C@@H](NC(=O)[C@H](CC(=O)O)NC(=O)[C@H](CO)NC(=O)[C@@H](NC(=O)[C@](C)(Cc1ccccc1)NC(=O)[C@H](CO)NC(=O)CNC(=O)[C@H](Cc1c[nH]cn1)NC(=O)C(C)(C)NC(=O)[C@@H](N)Cc1c[nH]cn1)[C@@H](C)O)C(C)C)C(C)C)C(=O)N[C@@H](C)C(=O)N[C@@H](CC(N)=O)C(=O)N[C@H](C(N)=O)[C@@H](C)O [Peptide 354]	1.6	1110	902	–	–
CC[C@H](C)[C@H](NC(=O)[C@H](Cc1c[nH]c2ccccc12)NC(=O)[C@H](CCCCNC(=O)CCOCCOCCNC(=O)CCOCCOCCNC(=O)CC[C@H](NC(=O)CC[C@H](NC(=O)CCCCCCCCCCCCCCCCCCC(=O)O)C(=O)O)C(=O)O)NC(=O)[C@@H](NC(=O)[C@H](Cc1ccccc1)NC(=O)[C@H](CC(=O)O)NC(=O)[C@H](CCC(N)=O)NC(=O)[C@H](C)NC(=O)[C@H](C)NC(=O)[C@H](CCC(N)=O)NC(=O)[C@H](CO)NC(=O)[C@H](CC(=O)O)NC(=O)[C@H](CC(C)C)NC(=O)[C@](C)(Cc1ccccc1)NC(=O)[C@H](CCCCN)NC(=O)[C@H](CO)NC(=O)[C@@H](NC(=O)[C@H](CC(=O)O)NC(=O)[C@H](CO)NC(=O)[C@@H](NC(=O)[C@](C)(Cc1ccccc1)NC(=O)[C@H](CO)NC(=O)CNC(=O)[C@H](Cc1c[nH]cn1)NC(=O)C(C)(C)NC(=O)[C@@H](N)Cc1c[nH]cn1)[C@@H](C)O)C(C)C)C(C)C)C(=O)N[C@@H](C)C(=O)N[C@@H](CC(N)=O)C(=O)N[C@H](C(N)=O)[C@@H](C)O [Peptide 355] (H-H[Aib]HGS[αMeF]TSDVSK[αMeF]LDSQAAQDFVK([PEG2-PEG2-γGlu-γGlu-C20 diacid])WIANT-NH2; N-terminus assumed)	2.2	424	478	–	–
CC[C@H](C)[C@H](NC(=O)[C@H](Cc1c[nH]c2ccccc12)NC(=O)[C@H](CCCCNC(=O)COCCOCCNC(=O)COCCOCCNC(=O)CC[C@H](NC(=O)CCCCCCCCCCCCCCCCCCC(=O)O)C(=O)O)NC(=O)[C@@H](NC(=O)[C@H](Cc1ccccc1)NC(=O)[C@H](CC(=O)O)NC(=O)[C@H](CCC(N)=O)NC(=O)[C@H](C)NC(=O)[C@H](C)NC(=O)[C@H](CCC(N)=O)NC(=O)[C@H](CO)NC(=O)[C@H](CC(=O)O)NC(=O)[C@H](CC(C)C)NC(=O)[C@](C)(Cc1ccccc1)NC(=O)[C@H](CCCCN)NC(=O)[C@H](CO)NC(=O)[C@@H](NC(=O)[C@H](CC(=O)O)NC(=O)[C@H](CO)NC(=O)[C@@H](NC(=O)[C@](C)(Cc1ccccc1)NC(=O)[C@H](CO)NC(=O)CNC(=O)[C@H](Cc1c[nH]cn1)NC(=O)C(C)(C)NC(=O)[C@@H](N)Cc1c[nH]cn1)[C@@H](C)O)C(C)C)C(C)C)C(=O)N[C@@H](C)C(=O)N[C@@H](CC(N)=O)C(=O)N[C@H](C(N)=O)[C@@H](C)O [Peptide 356] (H-H[Aib]HGS[αMeF]TSDVSK[αMeF]LDSQAAQDFVK([AEEA-AEEA-γGlu-C20 diacid])WIANT-NH2; N-terminus assumed)	2.1	304	316	–	–
CC[C@H](C)[C@H](NC(=O)[C@H](Cc1c[nH]c2ccccc12)NC(=O)[C@H](CCCCNC(=O)COCCOCCNC(=O)COCCOCCNC(=O)CC[C@H](NC(=O)CCCCCCCCCCCCCCCCC(=O)O)C(=O)O)NC(=O)[C@@H](NC(=O)[C@H](Cc1ccccc1)NC(=O)[C@H](CC(=O)O)NC(=O)[C@H](CCC(N)=O)NC(=O)[C@H](C)NC(=O)[C@H](C)NC(=O)[C@H](CCC(N)=O)NC(=O)[C@H](CO)NC(=O)[C@H](CC(=O)O)NC(=O)[C@H](CC(C)C)NC(=O)[C@](C)(Cc1ccccc1)NC(=O)[C@H](CCCCN)NC(=O)[C@H](CO)NC(=O)[C@@H](NC(=O)[C@H](CC(=O)O)NC(=O)[C@H](CO)NC(=O)[C@@H](NC(=O)[C@](C)(Cc1ccccc1)NC(=O)[C@H](CO)NC(=O)CNC(=O)[C@@H](NC(=O)C(C)(C)NC(=O)[C@@H](N)Cc1c[nH]cn1)[C@@H](C)CC)[C@@H](C)O)C(C)C)C(C)C)C(=O)N[C@@H](C)C(=O)N[C@@H](CC(N)=O)C(=O)N[C@H](C(N)=O)[C@@H](C)O [Peptide 358] (H-H[Aib]IGS[αMeF]TSDVSK[αMeF]LDSQAAQDFVK([AEEA-AEEA-γGlu-C18 diacid])WIANT-NH2; N-terminus assumed)	–	74.9	16000	–	–
CC[C@H](C)[C@H](NC(=O)[C@H](Cc1c[nH]c2ccccc12)NC(=O)[C@H](CCCCNC(=O)COCCOCCNC(=O)COCCOCCNC(=O)CC[C@H](NC(=O)CCCCCCCCCCCCCCCCC(=O)O)C(=O)O)NC(=O)[C@@H](NC(=O)[C@H](Cc1ccccc1)NC(=O)[C@H](CC(=O)O)NC(=O)[C@H](CCC(N)=O)NC(=O)[C@H](C)NC(=O)[C@H](C)NC(=O)[C@H](CCCNC(=N)N)NC(=O)[C@H](CO)NC(=O)[C@H](CC(=O)O)NC(=O)[C@H](CC(C)C)NC(=O)[C@](C)(Cc1ccccc1)NC(=O)[C@H](CCCCN)NC(=O)[C@H](CO)NC(=O)[C@@H](NC(=O)[C@H](CC(=O)O)NC(=O)[C@H](CO)NC(=O)[C@@H](NC(=O)[C@](C)(Cc1ccccc1)NC(=O)[C@H](CO)NC(=O)CNC(=O)[C@@H](NC(=O)C(C)(C)NC(=O)[C@@H](N)Cc1c[nH]cn1)[C@@H](C)CC)[C@@H](C)O)C(C)C)C(C)C)C(=O)N[C@@H](C)C(=O)N[C@@H](CC(N)=O)C(=O)N[C@H](C(N)=O)[C@@H](C)O [Peptide 359] (H-H[Aib]IGS[αMeF]TSDVSK[αMeF]LDSRAAQDFVK([AEEA-AEEA-γGlu-C18 diacid])WIANT-NH2)	216.6	–	–	46.1	5050
CC[C@H](C)[C@H](NC(=O)[C@H](Cc1c[nH]c2ccccc12)NC(=O)[C@H](CCCCNC(=O)COCCOCCNC(=O)COCCOCCNC(=O)CC[C@H](NC(=O)CCCCCCCCCCCCCCCCCCC(=O)O)C(=O)O)NC(=O)[C@@H](NC(=O)[C@H](Cc1ccccc1)NC(=O)[C@H](CC(=O)O)NC(=O)[C@H](CCC(N)=O)NC(=O)[C@H](C)NC(=O)[C@H](C)NC(=O)[C@H](CCCNC(=N)N)NC(=O)[C@H](CO)NC(=O)[C@H](CC(=O)O)NC(=O)[C@H](CC(C)C)NC(=O)[C@](C)(Cc1ccccc1)NC(=O)[C@H](CCCCN)NC(=O)[C@H](CO)NC(=O)[C@@H](NC(=O)[C@H](CC(=O)O)NC(=O)[C@H](CO)NC(=O)[C@@H](NC(=O)[C@](C)(Cc1ccccc1)NC(=O)[C@H](CO)NC(=O)CNC(=O)[C@@H](NC(=O)C(C)(C)NC(=O)[C@@H](N)Cc1c[nH]cn1)[C@@H](C)CC)[C@@H](C)O)C(C)C)C(C)C)C(=O)N[C@@H](C)C(=O)N[C@@H](CC(N)=O)C(=O)N[C@H](C(N)=O)[C@@H](C)O [Peptide 360] (H-H[Aib]IGS[αMeF]TSDVSK[αMeF]LDSRAAQDFVK([AEEA-AEEA-γGlu-C20 diacid])WIANT-NH2; N-terminus assumed)	103.5	–	–	108	5640
